Consider 6 compounds from US10239842B2, “Hydrosoluble compounds derived from benzimidazole used in treating fasciolosis” (UNIVERSIDAD NACIONAL AUTONOMA DE MEXICO, priority 2014, dated 2019).

Like-named read-outs stand apart in the source and are kept apart here.

For data set [1] the following is noted: TCBZ solubility reported in literature; cited from earlier work.
For data set [2] the following is noted: cited from earlier work.
Data set [3] relates to Fasciola hepatica. The experiment in a line: In-vitro evaluation of fasciolicide efficacy on artificially excysted fasciola. It counts as cell-based. How it is done:
In order to evaluate the anti-fasciola effect of compounds 5 and 6 as mixture of regioisomers, artificially excysted fasciola were used (approximately six hours after excystment), according to the disclosure by Ibarra and Jenkins, (1984). Briefly, recently excysted fasciola are suspended in 90 ml of Roswell Park Memorial Institute (RPMI)-1640® culture media plus 90 ml of bovine serum and 1.5 ml of antibiotics (Penicillin and Streptomycin) at a density of 100 individuals/ml.
5 mg of experimental compound was used and placed in a universal bottle (30 ml capacity), to which 0.1 ml of methanol was added to dissolve the compound. From this point, required dilutions are carried out with distilled water to prepare concentrations of 50 and 10 mg/l.
24-well NUNC® culture dishes were used and 1.6 ml of culture medium (RPMI/bovine serum), 0.2 ml of the compound concentration to be tested and 0.2 ml of RPMI containing 10 fasciola per well are placed into each well. Control wells which contain fasciola without compound are used per each dish, further including a control group with a reference drug (Triclabendazole-Fasinex®-Novartis). Each concentration is carried out three times. Each sample remains under incubation at 37° C. during 4 days under a 5% CO2 atmosphere.
Fasciola under study are examined at 24, 48 and 72 hours post-exposure to compound through an inverted microscope at 40×. Extract activity is measured by comparing survival of treated fasciola with control group fasciola. All procedures are carried out under aseptic conditions in a laminar flow hood.
Efficacy is measured by using the following formula (Abbott, 2004): % Efficacy=[Fasciola in control group−Fasciola in treated group]/[[…]]
The extract is considered to have fasciolicide activity when showing an in vitro efficacy higher than 80%. (Ibarra & Jenkins, 1984; Elango & Rahuman, 2011; Ibarra et al, 2013).

Data set [4] in a line: Stability studies in aqueous solution by UV-HPLC. As to conditions: >95% by UV-HPLC determined at room temperature. It counts as physicochemical. How it is done: Solutions were kept at room temperature (25° C.) for 26 hours (24 hour for TCBZ), and 5 mL of the samples were later diluted in 10 mL of water and analyzed by UV-HPLC.
Data set [5] has as its system Fasciola hepatica. Particulars: cited from earlier work; for Efficacy against Fasciola hepatica, second fasciola age span for the drug / Efficacy against Fasciola hepatica, first fasciola age span printed for the drug: sheep, recommended dose rates, span not recoverable from the grid; for Efficacy against Fasciola hepatica, second fasciola age span for the drug: second (older) age span in weeks; for Efficacy against Fasciola hepatica, first fasciola age span printed for the drug: first (younger) age span in weeks.

For data set [6], the system named is mature and juvenile fasciola. As to conditions: dose of 15 mg/Kg; previous studies; cited from earlier work.
Data set [7] can be described thus: Studies of aqueous solubility (method reported by Yalkowski). It counts as physicochemical. As to conditions: determined at 25° C. The procedure:
Sample was stirred at room temperature for 48 hours until reaching equilibrium between the two phases. The tube was then centrifuged at 4500 rpm for minutes at room temperature. […] Its concentration was then determined in a spectrophotometer at 350 nm.

Where [8] appears, read: 24 h, read-out: EFFICACY (%) 1st Test, mortality percentage.
The mark [9] stands for this setting: 24 h, read-out: EFFICACY (%) 2nd Test, mortality percentage.
Where [10] appears, read: 24 h, read-out: EFFICACY (%) 3rd Test, mortality percentage.
[11] abbreviates: 24 h, read-out: EFFICACY (%) Average, mortality percentage.
Where [12] appears, read: 48 h, read-out: EFFICACY (%) 1st Test, mortality percentage.
Where [13] appears, read: 48 h, read-out: EFFICACY (%) 2nd Test, mortality percentage.
Where [14] appears, read: 48 h, read-out: EFFICACY (%) 3rd Test, mortality percentage.
The mark [15] stands for this setting: 48 h, read-out: EFFICACY (%) Average, mortality percentage.
Setting [16] is: 72 h, read-out: EFFICACY (%) 1st Test, mortality percentage.
The mark [17] stands for this setting: 72 h, read-out: EFFICACY (%) 2nd Test, mortality percentage.
Where [18] appears, read: 72 h, read-out: EFFICACY (%) 3rd Test, mortality percentage.
The mark [19] stands for this setting: 72 h, read-out: EFFICACY (%) Average, mortality percentage.

Take `CSc1nc2cc(Oc3cccc(Cl)c3Cl)c(Cl)cc2[nH]1` [Triclabendazole]: the “Aqueous solubility pH 7” value in data set [1] is given as 2.0 × 10^−4 mg/mL. For the same compound, the “absorbed fraction of administered dose” value in data set [2] (orally administered) is recorded as 5%. Further, in data set [2] (share of dose), the “plasma levels of triclabendazole as sulfoxide” value is listed as 5%. Moreover, in data set [2] (share of dose), the removed in feces is 92%. Moreover, the removed in milk in data set [2] (share of dose) is recorded as 1%. For the same compound, the removed in urine in data set [2] (share of dose) is reported as 2%. Moreover, the mortality at 10 µg/mL with Fasciola hepatica [3] (setting [8]), with Fasciola hepatica [3] (setting [9]), in the data set on Fasciola hepatica [3] (setting [10]), with Fasciola hepatica [3] (setting [11]), with Fasciola hepatica [3] (setting [12]) and in the data set on Fasciola hepatica [3] (setting [13]) was 100% in each case. The mortality at 10 µg/mL with Fasciola hepatica [3] (setting [14]), with Fasciola hepatica [3] (setting [15]), in the data set on Fasciola hepatica [3] (setting [16]), in the data set with Fasciola hepatica [3] (setting [17]), in the data set on Fasciola hepatica [3] (setting [18]) and in the data set on Fasciola hepatica [3] (setting [19]) was 100% each time. In addition, the mortality at 50 µg/mL in the data set with Fasciola hepatica [3] (setting [8]), with Fasciola hepatica [3] (setting [9]), with Fasciola hepatica [3] (setting [10]), with Fasciola hepatica [3] (setting [11]), in the data set on Fasciola hepatica [3] (setting [12]) and with Fasciola hepatica [3] (setting [13]) was 100% each time. The mortality at 50 µg/mL in the data set on Fasciola hepatica [3] (setting [14]), in the data set on Fasciola hepatica [3] (setting [15]), in the data set with Fasciola hepatica [3] (setting [16]), in the data set on Fasciola hepatica [3] (setting [17]), in the data set on Fasciola hepatica [3] (setting [18]) and in the data set on Fasciola hepatica [3] (setting [19]) was 100% each time. Moreover, in data set [4], the “Aqueous solubility (h) pH 7 [chemical stability]” value was greater than 24 h. Moreover, in the data set on Fasciola hepatica [5], the “Efficacy against Fasciola hepatica, second fasciola age span for the drug” value (from here on “Efficacy … second fasciola age span for the drug”) is 91-99%.

As for `Nc1cc(C(Cl)=C(Cl)Cl)c(S(N)(=O)=O)cc1S(N)(=O)=O` [Closuron], the “Efficacy against Fasciola hepatica, first fasciola age span printed for the drug” value in the data set on Fasciola hepatica [5] is 90-99%.

As for `CCCSc1ccc2nc(NC(=O)OC)[nH]c2c1` [Albendazole], the “efficacy over Fasciola hepatica” value in the data set with Fasciola hepatica [5] (fasciola age weeks 10-11) is 50-70%; in the data set on Fasciola hepatica [5] (fasciola age weeks 12-14), 80-90%.

As for `CC(=O)Nc1ccc(OCCOCCOc2ccc(NC(C)=O)cc2)cc1` [Diamphenetide], the “efficacy in adult fasciola” value in the data set on Fasciola hepatica [5] (7-week adult fasciola) was “not being effective”. In addition, in the data set with Fasciola hepatica [5], the “Efficacy against Fasciola hepatica, first fasciola age span printed for the drug” value is 91-100% and the “Efficacy … second fasciola age span for the drug” value is listed as 50-80%.

Take `O=C(Nc1ccc(Oc2ccc(Cl)cc2)c(Cl)c1)c1cc(I)cc(I)c1O` [Rafoxanide]: the “Efficacy … second fasciola age span for the drug” value in the data set with Fasciola hepatica [5] is 91-99%.

As to `CSc1nc2cc(Oc3cccc4ccccc34)c(Cl)cc2[nH]1` [Alpha compound, 5-Chloro-2-(methylthio)-6-(1-naphthyloxy)-1H-benzimidazole], in data set [6], the “efficacy against mature and juvenile fasciola” value was 86.9%. In addition, in data set [4], the “Aqueous solubility (h) pH 7 [chemical stability]” value was greater than 26 h. For the same compound, the “Aqueous solubility pH 7” value in data set [7] is 2.6×10^−4 mg/mL.
